Assay results published in ChEMBL document CHEMBL5126642, “Triazine-Based Covalent DNA-Encoded Libraries for Discovery of Covalent Inhibitors of Target Proteins” (ACS Med Chem Lett, 2022).
pIC50: −log10 of the molar value.

Assays:
[1] = target: Tyrosine-protein kinase BTK (Homo sapiens, UniProt Q06187); test: Inhibition of BTK (unknown origin) using TK peptide as substrate incubated for 1 hr in presence of ATP by HTRF assay
[2] = target: T1, Tyrosine-protein kinase JAK3 (Homo sapiens, UniProt P52333); test: Inhibition of JAK3 (unknown origin) using TK peptide as substrate incubated for 1 hr in presence of ATP by HTRF assay
T1 sequence (P52333 whole entry): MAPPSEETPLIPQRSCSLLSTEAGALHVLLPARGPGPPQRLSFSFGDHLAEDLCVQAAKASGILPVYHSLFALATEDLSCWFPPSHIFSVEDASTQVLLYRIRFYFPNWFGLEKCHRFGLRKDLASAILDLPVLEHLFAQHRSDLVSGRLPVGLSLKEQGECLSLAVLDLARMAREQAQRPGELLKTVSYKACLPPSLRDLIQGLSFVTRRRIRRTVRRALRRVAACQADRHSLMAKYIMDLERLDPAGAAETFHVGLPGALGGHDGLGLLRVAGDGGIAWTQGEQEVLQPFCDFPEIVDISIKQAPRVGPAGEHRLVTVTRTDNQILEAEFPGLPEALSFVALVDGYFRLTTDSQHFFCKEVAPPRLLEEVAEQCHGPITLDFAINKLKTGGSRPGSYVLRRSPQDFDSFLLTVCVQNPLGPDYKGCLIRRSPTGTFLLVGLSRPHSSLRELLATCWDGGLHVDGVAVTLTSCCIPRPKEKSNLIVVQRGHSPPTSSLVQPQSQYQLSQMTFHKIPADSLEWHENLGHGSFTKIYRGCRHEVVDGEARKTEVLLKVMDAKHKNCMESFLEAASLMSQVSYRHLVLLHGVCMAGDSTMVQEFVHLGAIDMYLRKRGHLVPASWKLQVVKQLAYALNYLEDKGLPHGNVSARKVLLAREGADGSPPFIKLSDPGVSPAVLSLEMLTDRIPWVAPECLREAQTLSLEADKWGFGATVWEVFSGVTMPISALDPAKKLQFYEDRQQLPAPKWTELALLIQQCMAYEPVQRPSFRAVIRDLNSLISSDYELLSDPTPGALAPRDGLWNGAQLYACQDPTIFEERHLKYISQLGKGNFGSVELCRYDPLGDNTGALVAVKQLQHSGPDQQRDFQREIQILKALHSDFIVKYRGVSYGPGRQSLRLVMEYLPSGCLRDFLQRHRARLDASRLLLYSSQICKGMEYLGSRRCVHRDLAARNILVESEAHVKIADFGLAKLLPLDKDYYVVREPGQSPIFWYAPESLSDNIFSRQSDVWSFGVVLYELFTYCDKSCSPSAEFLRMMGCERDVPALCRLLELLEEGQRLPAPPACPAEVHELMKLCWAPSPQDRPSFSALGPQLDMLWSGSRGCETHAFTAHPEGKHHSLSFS

[3] = target: Peptidyl-prolyl cis-trans isomerase NIMA-interacting 1 (Homo sapiens, UniProt Q13526); test: Inhibition of GST-tagged Pin1 (unknown origin) using Suc-AEPF-pNA peptide as substrate incubated for 3 hrs
Peptidyl-prolyl cis-trans isomerase NIMA-interacting 1, sequence (Q13526 whole entry): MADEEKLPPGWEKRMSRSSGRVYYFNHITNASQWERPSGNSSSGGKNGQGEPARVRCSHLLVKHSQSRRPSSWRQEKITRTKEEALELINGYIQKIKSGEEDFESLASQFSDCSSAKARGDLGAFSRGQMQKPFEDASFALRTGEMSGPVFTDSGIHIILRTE

Tyrosine-protein kinase BTK, sequence (Q06187 whole entry): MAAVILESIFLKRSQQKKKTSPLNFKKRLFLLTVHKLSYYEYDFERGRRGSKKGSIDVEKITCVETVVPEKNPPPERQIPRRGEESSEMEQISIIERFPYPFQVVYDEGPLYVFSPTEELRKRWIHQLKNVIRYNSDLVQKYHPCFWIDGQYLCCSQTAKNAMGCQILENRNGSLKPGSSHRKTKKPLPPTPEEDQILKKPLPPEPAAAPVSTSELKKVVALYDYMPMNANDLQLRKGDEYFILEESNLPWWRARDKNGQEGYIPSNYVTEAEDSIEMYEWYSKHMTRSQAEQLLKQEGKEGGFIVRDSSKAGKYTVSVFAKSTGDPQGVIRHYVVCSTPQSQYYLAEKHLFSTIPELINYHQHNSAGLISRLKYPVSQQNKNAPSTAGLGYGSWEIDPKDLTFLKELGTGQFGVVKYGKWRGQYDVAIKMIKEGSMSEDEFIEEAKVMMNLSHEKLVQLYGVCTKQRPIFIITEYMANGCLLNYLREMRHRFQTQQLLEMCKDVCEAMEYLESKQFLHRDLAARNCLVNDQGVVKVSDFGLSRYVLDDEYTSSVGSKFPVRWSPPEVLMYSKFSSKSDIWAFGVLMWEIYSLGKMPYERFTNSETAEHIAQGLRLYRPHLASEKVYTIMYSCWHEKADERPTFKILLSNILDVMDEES

Compound	pIC50 [1]	pIC50 [2]	pIC50 [3]
C=CC(=O)N1CC2CC1CN2c1nc(NC)nc(Nc2cc[nH]n2)n1 (stereo not given)	7.79	6.16	–
CNc1nc(Nc2ccc3cn[nH]c3c2)nc(N2CC3CC2CN3C(=O)CCl)n1 (stereo not given)	–	–	5.77
CNc1nc(NCC(NC(=O)CCl)c2ccccc2)nc(Nc2cc(C(C)(C)C)[nH]n2)n1 (stereo not given)	6.20	7.49	–
CNc1nc(NC(c2ccccc2)c2cccc(S(C)(=O)=O)c2)nc(N2CCN(C(=O)CCl)CC2)n1 (stereo not given)	–	–	5.49

Further lines, results first:

pIC50 [1]	pIC50 [2]	pIC50 [3]	Compound
7.01	8.21	–	C=CC(=O)Nc1cccc(CNc2nc(NC)nc(Nc3cc(C(C)(C)C)[nH]n3)n2)c1
5.72	8.05	–	CNc1nc(NCc2cccc(NC(=O)CCl)c2)nc(Nc2cc(C(C)(C)C)[nH]n2)n1
